From PubChem BioAssay (NCI)
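How tested: cells in 96-well plates exposed to compound for 48 hours at five concentrations. TGI is the concentration that stops growth completely.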

What was measured:
Assay in all cases: DTP human tumour cell line panel, 48 h
SF-295 CNS = system: SF-295 CNS
SN12C renal = system: SN12C renal
NCI/ADR-RES ovarian = system: NCI/ADR-RES ovarian
TK-10 renal = system: TK-10 renal
SK-MEL-2 melanoma = system: SK-MEL-2 melanoma
EKVX NSCLC = system: EKVX NSCLC
IGROV1 ovarian = system: IGROV1 ovarian
SF-268 CNS = system: SF-268 CNS
ACHN renal = system: ACHN renal
COLO 205 colon = system: COLO 205 colon
KM12 colon = system: KM12 colon
HS 578T breast = system: HS 578T breast
DU-145 prostate = system: DU-145 prostate
U251 CNS = system: U251 CNS
SW-620 colon = system: SW-620 colon
A549 NSCLC = system: A549 NSCLC
OVCAR-8 ovarian = system: OVCAR-8 ovarian
SF-539 CNS = system: SF-539 CNS
UACC-257 melanoma = system: UACC-257 melanoma
LOX IMVI melanoma = system: LOX IMVI melanoma
SR leukemia = system: SR leukemia
NCI-H23 lung = system: NCI-H23 lung
OVCAR-4 ovarian = system: OVCAR-4 ovarian
T-47D breast = system: T-47D breast
K-562 leukemia = system: K-562 leukemia
HOP-62 NSCLC = system: HOP-62 NSCLC
MOLT-4 leukemia = system: MOLT-4 leukemia
RPMI-8226 leukemia = system: RPMI-8226 leukemia
MDA-N = system: MDA-N
BT-549 breast = system: BT-549 breast
786-0 renal = system: 786-0 renal
PC-3 prostate = system: PC-3 prostate
NCI-H522 lung = system: NCI-H522 lung
OVCAR-5 ovarian = system: OVCAR-5 ovarian
HOP-92 NSCLC = system: HOP-92 NSCLC
SK-OV-3 ovarian = system: SK-OV-3 ovarian
UO-31 renal = system: UO-31 renal
M14 melanoma = system: M14 melanoma
OVCAR-3 ovarian = system: OVCAR-3 ovarian
HL-60(TB) leukemia = system: HL-60(TB) leukemia
SNB-75 CNS = system: SNB-75 CNS
RXF 393 renal = system: RXF 393 renal
HCC-2998 colon = system: HCC-2998 colon
MCF7 breast = system: MCF7 breast
SK-MEL-5 melanoma = system: SK-MEL-5 melanoma
MDA-MB-435 = system: MDA-MB-435
HCT-116 colon = system: HCT-116 colon
HT29 colon = system: HT29 colon
MALME-3M melanoma = system: MALME-3M melanoma
SNB-19 CNS = system: SNB-19 CNS
NCI-H226 lung = system: NCI-H226 lung
A498 renal = system: A498 renal
NCI-H460 lung = system: NCI-H460 lung
SK-MEL-28 melanoma = system: SK-MEL-28 melanoma
CAKI-1 renal = system: CAKI-1 renal
CCRF-CEM leukemia = system: CCRF-CEM leukemia
HCT-15 colon = system: HCT-15 colon
MDA-MB-231 breast = system: MDA-MB-231 breast
UACC-62 melanoma = system: UACC-62 melanoma

In the case of `Nc1ccc2c(=S)c3ccccc3[nH]c2c1`, the TGI (SF-295 CNS) is reported as > 100 µM, the TGI (SN12C renal) is reported as > 100 µM and the TGI (NCI/ADR-RES ovarian) is reported as > 100 µM. The TGI (TK-10 renal) was > 100 µM, the TGI (SK-MEL-2 melanoma) was > 100 µM and the TGI (EKVX NSCLC) was > 100 µM. For the same molecule, the TGI (IGROV1 ovarian) was > 100 µM, the TGI (SF-268 CNS) was > 100 µM and the TGI (ACHN renal) was > 100 µM. The TGI (COLO 205 colon) was > 100 µM, the TGI (KM12 colon) was > 100 µM and the TGI (HS 578T breast) was > 100 µM. The TGI (DU-145 prostate) was > 100 µM, the TGI (U251 CNS) was > 100 µM and the TGI (SW-620 colon) was > 100 µM. The TGI (A549 NSCLC) was > 100 µM, the TGI (OVCAR-8 ovarian) was > 100 µM and the TGI (SF-539 CNS) was > 100 µM. For the same molecule, the TGI (UACC-257 melanoma) was > 100 µM, the TGI (LOX IMVI melanoma) was > 100 µM and the TGI (SR leukemia) was > 100 µM. The TGI (NCI-H23 lung) was > 100 µM, the TGI (OVCAR-4 ovarian) was > 100 µM and the TGI (T-47D breast) was > 59 µM. The TGI (K-562 leukemia) was > 100 µM, the TGI (HOP-62 NSCLC) was > 73 µM and the TGI (MOLT-4 leukemia) was > 84.4 µM. The TGI (RPMI-8226 leukemia) was > 100 µM, the TGI (MDA-N) was > 100 µM and the TGI (BT-549 breast) was > 100 µM. For the same molecule, the TGI (786-0 renal) was > 100 µM, the TGI (PC-3 prostate) was > 100 µM and the TGI (NCI-H522 lung) was 79.2 µM. For the same molecule, the TGI (OVCAR-5 ovarian) was > 100 µM, the TGI (HOP-92 NSCLC) was 98.9 µM and the TGI (SK-OV-3 ovarian) was 98.5 µM. The TGI (UO-31 renal) was > 100 µM, the TGI (M14 melanoma) was > 83.3 µM and the TGI (OVCAR-3 ovarian) was > 100 µM. The TGI (HL-60(TB) leukemia) was > 100 µM, the TGI (SNB-75 CNS) was > 100 µM and the TGI (RXF 393 renal) was 98.9 µM. For the same molecule, the TGI (HCC-2998 colon) was > 100 µM, the TGI (MCF7 breast) was > 100 µM and the TGI (SK-MEL-5 melanoma) was > 100 µM. For the same molecule, the TGI (MDA-MB-435) was > 100 µM, the TGI (HCT-116 colon) was > 100 µM and the TGI (HT29 colon) was > 100 µM. The TGI (MALME-3M melanoma) was > 100 µM, the TGI (SNB-19 CNS) was > 100 µM and the TGI (NCI-H226 lung) was > 100 µM. For the same molecule, the TGI (A498 renal) was > 100 µM, the TGI (NCI-H460 lung) was > 100 µM and the TGI (SK-MEL-28 melanoma) was > 100 µM. The TGI (CAKI-1 renal) was > 100 µM, the TGI (CCRF-CEM leukemia) was > 95.4 µM and the TGI (HCT-15 colon) was > 100 µM. For the same molecule, the TGI (MDA-MB-231 breast) was > 100 µM and the TGI (UACC-62 melanoma) was > 100 µM.

Molecule `O=C1CSC(c2cc3cc(Br)ccc3nc2Cl)N1c1ccc(Cl)cc1` (configuration not stated) has a TGI (SF-295 CNS) of 37.6 µM, a TGI (SN12C renal) of 48.7 µM and a TGI (NCI/ADR-RES ovarian) of 75.3 µM. For the same molecule, the TGI (TK-10 renal) was 70.7 µM, the TGI (SK-MEL-2 melanoma) was 32.2 µM and the TGI (EKVX NSCLC) was > 100 µM. The TGI (IGROV1 ovarian) was > 100 µM, the TGI (SF-268 CNS) was > 100 µM and the TGI (ACHN renal) was > 100 µM. The TGI (COLO 205 colon) was 41.2 µM, the TGI (KM12 colon) was 47.6 µM and the TGI (HS 578T breast) was > 100 µM. For the same molecule, the TGI (DU-145 prostate) was > 100 µM, the TGI (SW-620 colon) was > 100 µM and the TGI (A549 NSCLC) was > 100 µM. The TGI (OVCAR-8 ovarian) was > 100 µM, the TGI (SF-539 CNS) was 37.8 µM and the TGI (UACC-257 melanoma) was 42.5 µM. For the same molecule, the TGI (LOX IMVI melanoma) was 33.7 µM, the TGI (SR leukemia) was 44.8 µM and the TGI (NCI-H23 lung) was > 100 µM. The TGI (OVCAR-4 ovarian) was 81.5 µM, the TGI (T-47D breast) was > 100 µM and the TGI (K-562 leukemia) was > 100 µM. For the same molecule, the TGI (HOP-62 NSCLC) was > 100 µM, the TGI (MOLT-4 leukemia) was 47.9 µM and the TGI (RPMI-8226 leukemia) was > 100 µM. For the same molecule, the TGI (MDA-N) was > 100 µM, the TGI (BT-549 breast) was 61.5 µM and the TGI (786-0 renal) was > 100 µM. The TGI (PC-3 prostate) was > 100 µM, the TGI (NCI-H522 lung) was 57.3 µM and the TGI (OVCAR-5 ovarian) was > 100 µM. The TGI (HOP-92 NSCLC) was > 100 µM, the TGI (SK-OV-3 ovarian) was > 100 µM and the TGI (UO-31 renal) was > 100 µM. It also gave a TGI (M14 melanoma) of 84.9 µM, a TGI (OVCAR-3 ovarian) of 41.3 µM and a TGI (HL-60(TB) leukemia) of 55.7 µM. The TGI (SNB-75 CNS) was > 100 µM, the TGI (RXF 393 renal) was 60.9 µM and the TGI (HCC-2998 colon) was 41.7 µM. For the same molecule, the TGI (MCF7 breast) was 67.6 µM, the TGI (SK-MEL-5 melanoma) was 37.9 µM and the TGI (MDA-MB-435) was 49.5 µM. The TGI (HCT-116 colon) was 77 µM, the TGI (HT29 colon) was > 100 µM and the TGI (MALME-3M melanoma) was 75.8 µM. The TGI (SNB-19 CNS) was > 100 µM, the TGI (NCI-H226 lung) was > 100 µM and the TGI (A498 renal) was > 100 µM. For the same molecule, the TGI (NCI-H460 lung) was 42.1 µM, the TGI (SK-MEL-28 melanoma) was > 100 µM and the TGI (CAKI-1 renal) was > 100 µM. The TGI (CCRF-CEM leukemia) was 97.6 µM, the TGI (HCT-15 colon) was 88.8 µM and the TGI (MDA-MB-231 breast) was > 100 µM. The TGI (UACC-62 melanoma) was 22.6 µM.
